Results reported in patent US20040248816A1, “Treatment of migraine” (Boehringer Ingelheim International GmbH, priority 2003, published 2004).

Tested on: vasodilatation of the facial skin, induced by electrical ganglion stimulation
Assay: Facial skin blood flow: vasodilatation of the facial skin induced by electrical trigeminal ganglion stimulation
Type: in vivo, rat
Settings: anaesthetised male Wistar rats, i.v. 5 minutes before the second stimulation, BIBN 4096 Cl 0.03 mg/kg, sumatriptan 1.0 mg/kg, combination (0.03 mg + 1.0 mg)/kg; for % of trigeminus stimulation: first stimulation as control, saline control 82.7 ± 4.4
Description: Measurement of the Facial Skin Blood Flow
The facial skin blood flow was measured by a modified method as described by Escott et al. (Escott, K. J., Beattie, D. T., Connor, H. E., Brain, S. D. (1995), Trigeminal ganglion stimulation increases facial skin blood flow in the rat: a major role for calcitonin gene-related peptide, Brain Research, 669(1), 93-99). Fasting male Wistar rats (strain CHbb:THOM, 280-320 g) were anaesthetised with sodium pentobarbitone (initially with 60 mg/kg i.p. and maintained throughout the experiment with an intraperitoneal infusion of 30 mg/kg/h through a 23 G needle using a solution of 10 mg/ml). Both sides of the buccal region of the facial skin were shaved and depilated with a commercially available depilatory cream (Pilca, Schwarzkopf & Henkel, 40551 Düsseldorf, Germany). The trachea was fitted with a cannula, and the animals were artificially ventilated (80 breaths per minute) with ambient air enriched with oxygen. The body temperature was maintained at 37° C. using an automatic heating pad. The left femoral artery and left femoral vein were fitted with cannulas for continuous measurement of the arterial blood pressure or the intravenous administration of test compounds. A neuromuscular blockade was obtained by intravenous administration of pancuronium bromide (1 mg/kg/0.5 ml, 5 minutes before each electrical stimulation). The heart rate was derived from the blood pressure signal. The blood pressure and heart rate were recorded continuously during the course of the experiment in order to assess the level of anaesthesia and monitor the cardiovascular activities of the pharmaceutical compositions used in this study.
The animals were placed in a stereotactic frame, and a longitudinal cut was made in the scalp. A small hole was drilled in the skull (on the left or right) and a bipolar electrode (Rhodes SNEX-100, obtained from David Kopf Instruments, Tujunga, 91042 Calif., USA) was lowered by means of a micromanipulator into the trigeminal ganglion (0.32 cm dorsally of the bregma, ±0.30 cm laterally of the centre line and 0.95 cm below the dural surface). The position of the electrodes in the trigeminal ganglia was checked visually at the end of each experiment after the removal of the brain. […] Microvascular changes in blood flow in the facial skin were measured by laser Doppler flow measurement using a Periflux Laser-Doppler system (PeriFLUX 4001, wavelength: 780 nm; time constant: 3 s; Perimed AB, Järfälla, S-17526, Sweden). […] Changes in blood flow were measured as flow in any desired units and expressed as the area under the flow curve (mm^2) according to Escott et al. (1995). […]

[1] = Rattus norvegicus, iv, versus saline solution control, read-out: % inhibition compared with the control value

| Compound | inhibition at 0.03 mg/kg [1] [%] | % of trigeminus stimulation [%] | inhibition at 1 mg/kg [1] [%] |
| --- | --- | --- | --- |
| NCCCC[C@H](NC(=O)[C@@H](Cc1cc(Br)c(O)c(Br)c1)NC(=O)N1CCC(N2Cc3ccccc3NC2=O)CC1)C(=O)N1CCN(c2ccncc2)CC1 [BIBN 4096 Cl, 1-[N^2-[3,5-dibromo-N-[[4-(3,4-dihydro-2(1H)-oxoquinazolin-3-yl)-1-piperidinyl]-carbonyl]-D-tyrosyl]-L-lysyl]-4-(4-pyridinyl)-piperazine] | 27.1 | 60.3 ± 5.1 | – |
| CNS(=O)(=O)Cc1ccc2[nH]cc(CCN(C)C)c2c1 [sumatriptan] | – | 68.8 ± 6.8 | 16.8 |
